This is an account of results in patent US9809521B2, “Cannabidinoid derivatives” (priority 2011, dated 2017).

Data set [1] has as its system Id-1. In words: Quantitative Western analysis of Id-1 protein expression in MDA-MB231 cells. It counts as cell-based, human. To be noted: 1.5 μM, two days. As to the method: Quantitative Western analysis of Id-1 Expression in MDA-MB231 cells with CBD, Δ^9-THC, or WIN 55,212-2. The ability of CBD to regulate the expression of key genes that control breast cancer cell aggressiveness and invasiveness was determined.
SAR Analysis of Id-1 expression in MDA-MB231 cells with (Abn)-CBD receptor, Abn-CBD, O-1602, CP55,940, THC, CBN, or CBD. In order to determine the structure activity relationship (“SAR”) between cannabinoids and the inhibition of Id-1, MDA-MB231 cells were treated for two days with multiple cannabinoid compounds and Id-1 protein levels were assessed.
Quantitative Western analysis of Id-1 expression in MDA-MB231 cells and U251 cells with CBD or O-1663 CBD analog. […] MDA-MB231 breast cancer cells and U251 GBM cells were treated with 1.0 μM of cannabinoid for two days and then analyzed for Id-1 protein expression by quantitative Western analysis.

In data set [2] the test system is SF126 cells. In words: MTT cell proliferation assay. To be noted: read-out: IC50, SF126.
Data set [3] has as its system MDA-MB231 cells. As to the kind of experiment: MTT cell proliferation/viability assay. From the text: (§1) The structure of O-1442 and O-1663 are almost identical with the exception of one R group. A smaller subset of the same analogs, including O-1442 and O-1663, were further screened for their ability to inhibit 4T1 breast cancer cell viability in anticipation of running in vivo experiments in immune competent mice (TABLE 5).
(§2) To directly test whether the O-1663 CBD analog could co-target two distinct cannabinoid antitumor pathways, the effects of CBD and the O-1663 CBD analog on cell viability with multiple antagonists were probed (FIG. 25). […] The ability of the O-1663 CBD analog and CBD to inhibit invasion was next compared (FIG. 25, panel C).

For data set [4], the system named is MDA-MB436 cells. As to the kind of experiment: MTT cell proliferation assay. To be noted: read-out: IC50, antiproliferative, MDA-MB436.
Data set [5] deals with 4T1 cells. As to the kind of experiment: Cell viability assay. It counts as cell-based, mouse. To be noted: Table 5; read-out: IC50, 4T1 cell viability.
Description: as §1

In data set [6] the test system is MDA-MB231 cells. As to the kind of experiment: Boyden chamber invasion assay. Type of data set: cell-based, human. To be noted: 0.1, 1.0 or 1.5 μM. On the procedure: Boyden chamber MDA-MB231 cell invasion studies with CBD, Δ^9-THC, or WIN 55,212-2. Invasion is an important step towards breast cancer cell metastasis. Therefore, the effects of several cannabinoids were tested on their ability to modulate the migratory and invasiveness activity of the most aggressive human breast cancer cell line, MDA-MB231, in a reconstituted basement membrane in a Boyden chamber.
Assays using Id-1 promoter reporter transfected MDA-MB231 cells with CBD. To determine if Id-1 represented a key mediator of CBD effects in highly aggressive breast cancer cells, Id-1 was constitutively expressed into MDA-MB231 cells (+)Id-1 as described in FIG. 2. The ectopic Id-1 gene, which is not under the control of the endogenous promoter, was introduced in the cells using the pLXSN retroviral vector. As a control, cells were infected with an empty pLXSN vector (−)Id-1.
Boyden chamber MDA-MB231 cell invasion studies with CBD and O-1663 CBD analog. Boyden chamber studies for invasion by MDA-MB231 or U251 cells were performed with either CBD or O-1663 CBD analog.
as §2

Data set [7] relates to ROS. In words: ROS measurement in MDA-MB231 cells. It counts as cell-based, human. To be noted: two days; approximate IC50 for CBD and THC. The source says: In culture, CBD-induced generation of ROS is a primary mechanism that leads to inhibition of cell growth, invasion, and survival across multiple cancers. The generation of ROS by CBD leads to the inhibition of Id-1 expression in breast cancer cells. […] The ability of CBD and the O-1663 CBD analog to stimulate the production of ROS was next compared. […] The involvement of CB2 receptors in the productions of ROS produced by CBD and the O-1663 CBD analog was next investigated.

In data set [8] the test system is caspase 3, 7, 9 and PARP. As to the kind of experiment: Western analysis of caspases and PARP in U251 cells. It counts as cell-based, human. As to conditions: THC 1.7 μM, CBD 0.4 μM, three days. The source says:
Caspases play a primary role in the regulation of programmed cell death.

Data set [9] relates to U251 cells. In words: MTT cell proliferation assay. As to conditions: read-out: IC50, U251; seven day treatment; 95% confidence limits in brackets.
Data set [10] concerns U87 cells. As to the kind of experiment: MTT cell proliferation assay. To be noted: read-out: IC50, U87; seven day treatment; 95% confidence limits in brackets.
Data set [11] concerns U251 cells. As to the kind of experiment: Cell cycle analysis (PI staining, FACS). To be noted: THC 1.7 μM, CBD 0.4 μM. Type of data set: cell-based, human. As to the method:
Cell cycle analysis: U251 cells were grown in Petri dishes (100 mm×15 mm) and received drug treatments for 2 days. On the third day, the cells were harvested and centrifuged at 1200 rpm for 5 minutes. The pellet was washed 1× with PBS+1% BSA, and centrifuged again. The pellet was re-suspended in 0.5 ml of 2% paraformaldehyde (diluted with PBS) and left to fix overnight at room temperature. The next day the cells were pelleted and re-suspended in 0.5 ml 0.3% Triton in PBS and incubated for 5 minutes at room temperature. The cells were then washed 2 times with PBS+1% BSA. The cells were finally suspended in PBS (0.1% BSA) with 10 ug/ml Propidium Iodide and 100 μg/ml RNAse. The cells were incubated for 30 minutes at room temperature before being stored at 4° C. Cell cycle was measured using a FACS Calibur using Cell Quest Pro and Modfit software.
Apoptosis Studies using U251 cells with Δ^9-THC and/or CBD. […] Therefore, U251 cells were treated with THC and CBD alone or with the combination of the two, and cell cycle was analyzed using cell flow cytometery (FIG. 20). […] Additionally, there was an increase in the population of cells in the G2/M phase. These changes in G1, S and G2/M phase are hallmarks of cell cycle arrest.
(§3) Albeit, the magnitude of these effects was reduced compared to those observed with the combination treatment.

For data set [12], the system named is pERK, JNK, p38 MAPK. In words: Western analysis of MAPK activity in U251 cells.
Data set [13] concerns U251 cells. In words: Apoptosis (annexin staining, FACS). It counts as cell-based, human. On the procedure: Apoptosis: Cells were grown in 6 well culture dishes and were treated with compounds of the disclosure every 24 hours for three days. […] The labeled cells were analyzed by flow cytometry. Cell Flow Cytometry in combination with PI and annexin staining was used to quantify the percentage of cells undergoing apoptosis in control and treatment groups. Percent control was calculated as annexin positive staining in treated cells/control cells×100. PI staining was used to distinguish necrotic cells from those undergoing apoptosis.
as §3
The concentrations of the individual cannabinoids (THC and CBD) were next increased in order to attempt to match levels of apoptosis produced by the combination treatment. The purpose of these experiments was to determine whether the compounds alone recruited similar pathways as compared to the combination of THC and CBD. […] However, THC alone could not produce the level of apoptosis observed with the combination treatment (FIG. 23, panel A and B).

For data set [14], the system named is U251 cells. In words: Boyden chamber invasion assay. It counts as cell-based, human. The source says:
Boyden chamber U251 cell invasion studies with CBD and/or Δ^9-THC. In addition to uncontrolled cell growth, a hallmark phenotype of aggressive GBM tumor cells is their ability to migrate away for the primary tumor of origin and invade into neighboring CNS tissue.

The mark [15] stands for this setting: Homo sapiens, MDA-MB-231, 72 h, read-out: IC50, antiproliferative, MDA-MB231.
Setting [16] is: seven day treatment, 95% confidence limits in brackets.
[17] abbreviates: read-out: IC50, antiproliferative, MDA-MB231, treated for three days, MTT, confidence limits in brackets.
[18] abbreviates: treated for three days, MTT, confidence limits in brackets.

“Also recorded” adds a separate entry of the source. Where two headings read alike, the source gives them in different places. Marks after values point to notes of the source that are not given here.

Regarding `C=C(C)[C@@H]1CCC(C)=C[C@H]1c1c(O)cc(O)cc1CCCCC` [Abn-CBD], the “inhibition of Id-1 (structure activity relationship)” value in data set [1] is “No inhibition of Id-1”.
`CCCCCc1cc(O)c(C/C=C(\C)CCC=C(C)C)c(O)c1` [CBG, cannabigerol]: the 50% inhibitory concentration (IC50) in [2] (Homo sapiens, SF-126, 72 h) was determined as 1.6 µM; in data set [3] (setting [15]) it was 2.3 µM; in [4] (Homo sapiens, MDA-MB-436, 72 h), 2.1 µM.
Consider `CCCCCc1cc(O)c2c(c1)OC(C)(C)c1ccc(C)cc1-2` [CBN, cannabinol], for which, in [1], the “inhibition of Id-1 (structure activity relationship)” value is listed as “partially inhibit Id-1”.
Take `CCCCCCC(C)(C)c1ccc([C@@H]2C[C@H](O)CC[C@H]2CCCO)c(O)c1` [CP 55, 940]: the IC50 in data set [2] (Homo sapiens, SF-126, 72 h) was found to be 3.3 µM; in [3] (setting [15]), 2.5 µM; in data set [4] (Homo sapiens, MDA-MB-436, 72 h) it was 1.3 µM. For the same compound, the “inhibition of Id-1 (structure activity relationship)” value in data set [1] is on record as “less effective than CBD; also recorded: small inhibition of Id-1; also recorded: partially inhibit Id-1”.
`C=C(C)[C@@H]1CCC(C)=C[C@H]1c1c(C)cc(O)cc1O` [Compound 0-1602]: the “inhibition of Id-1 (structure activity relationship)” value in [1] is “No inhibition of Id-1”.
Turning to `CCCCCCC(C)(C)c1cc(OC)c(C2(O)CCCC(C)C2)c(OC)c1` (stereo not drawn) [Compound O-2137], the “Percent inhibition of cell viability, MDA-MB231” value in data set [3] (at 5 μM) came out at 45%^a. For the same compound, the IC50 in [5] is 3.5 µM.
In the case of `CCCCCc1cc(O)c2c(c1)OC(C)(C)[C@@H]1CCC(C)=C[C@@H]21` [THC, Δ^9-tetrahydrocannabinol], the “invasion of MDA-MB231 cells” value in data set [6] was “significantly reduced the invasion”. For the same compound, in data set [7], the “generation of ROS” value is listed as “no significant increase in ROS”. The IC50 in data set [2] (setting [16]) was 0.9 µM; in [2] (three day treatment, Table 3), 2.5 µM; in data set [9], 1.1 µM; in [10] it was 1.6 µM; in data set [3] (read-out: IC50, MDA-MB231 cell viability, Table 5), 3 µM; in data set [3] (setting [17]), 1.2 µM. The IC50 in data set [4] (setting [18]) was 2.5 µM; in data set [5] it was 2.3 µM; in data set [14] (Boyden chamber, limits 49-150, read-out: predicted IC50, U251 cell invasiveness), 0.085 µM. Also, in data set [8], the “caspase 3, 7, 9 and PARP” value was “Small increases in the activity of caspase 7, caspase 9 and PARP but not caspase 3”. In data set [1], the “inhibition of Id-1 (structure activity relationship)” value is on record as “had no activity against Id-1; also recorded: No inhibition of Id-1”. Moreover, the cell cycle phases entry in [11] was “increases in the population of cells in G1 and G2/M phase and decreases in cells in S phase”. Moreover, in [12] (2.5 μM Δ^9-THC, 2.0 μM CBD, three days), the “p-ERK, higher concentrations alone” value is reported as “had no effect on p-ERK activity”. Besides, the pERK result in data set [12] (THC 1.7 μM, CBD 0.4 μM, two days) is on record as “no changes in pERK were observed”. Besides, the “block of apoptosis by CB2 antagonist SR144528” value in data set [13] (0.5 μM SR144528, combination 1.7/0.4 μM, 2.5 μM THC, 2.0 μM CBD) is recorded as “partially blocked by the CB2 antagonist”. In data set [13] (20 μM α-tocopherol, combination 1.7/0.4 μM, 2.5 μM THC, 2.0 μM CBD), the “block of apoptosis by α-tocopherol” value is on record as “completely blocked by α-tocopherol”. Moreover, in [13] (THC 1.7 μM, CBD 0.4 μM, three days), the “apoptosis (annexin)” value is “did not produce significant changes in apoptosis”. The “invasiveness of U251 cells” value in data set [14] was “effectively inhibited the invasiveness of U251 cells”.
With `Cc1c(C(=O)c2cccc3ccccc23)c2cccc3c2n1[C@H](CN1CCOCC1)CO3` [WIN 55, 212-2], the “invasion of MDA-MB231 cells” value in [6] is listed as “significantly reduced the invasion”. Further, the IC50 in data set [2] (setting [16]) is 0.84 µM; in [2] (three day treatment, Table 3), 1.3 µM; in data set [9] it was 1.1 µM; in data set [10], 0.77 µM; in data set [3] (setting [17]), 1.7 µM; in data set [4] (setting [18]) it was 2.4 µM.
